Test results reported in patent publication US12053477B2, “Methods for treating pulmonary fibrosis” (Reviva Pharmaceuticals, Inc., priority 2017, dated 2024).

How the values were obtained:
[1] = target: Human recombinant D2S (Homo sapiens (Human), UniProt P14416); test: Dopamine D2S radioligand binding assay
[2] = target: Human Cortex or Human recombinant 5-HT2A (Homo sapiens (Human), UniProt P28223); test: Serotonin 5HT2A radioligand binding assay
[3] = target: Human recombinant 5-HT1A (Homo sapiens (Human), UniProt P08908); test: Serotonin 5HT1A radioligand binding assay
[4] = system: Bleomycin (BLM) induced pulmonary fibrosis; test: Bleomycin (BLM) induced pulmonary fibrosis rat model; format: in vivo, Sprague Dawley rats
Protocol: Study Animals: The investigation involved 34 male Sprague Dawley rats (weights: 275-300 g; ages: 8 weeks; Charles River Laboratories, Quebec, Canada) randomized for equal distribution according to their body weight into four groups.
Study Methods: On Day 0, animals in Group 1 (Sham; N=5) received one intratracheal administration of the vehicle, 0.250 mL of vehicle 0.9% saline solution (FIG. 1). Animals in Groups 2 to 4 (n=9, 10, 10, respectively) received a single intratracheal instillation of 0.250 mL (5 U/kg-3.33 mg/kg) of bleomycin sulfate (Cayman Chemicals, Ann Arbor, MI) solution. From Day 1 to 10, the vehicle was administered to Groups 1, 2, and 4. […] The vehicle administration was continued to Group 1 (Sham) and Group 2 (BLM) until Day 20. […] During the treatment period, food and water were provided ad libitum to the rats. On each day, animals were monitored for behavior, general health status, and survival. Body weight and food intake were also measured.
For bleomycin, 50 mg of drug was weighed and dissolved in 12.5 mL of sterile 0.9% Saline solution was added to obtain a solution of 4 mg/mL. The vehicle was created by dissolving 50 g of glucose in 1 L of water to result in a 5% solution.
On Day 21, animals were anesthetized and instrumented. Hemodynamic parameters (systemic arterial blood pressure, heart rate, and oxygen saturation) were recorded continuously for at least 5 minutes. At the end of the recording, a blood sample was collected. After the animal was exsanguinated, the pulmonary circulation was flushed with 0.9% NaCl, and tissues (lungs, trachea, and heart) were harvested altogether from the thoracic cavity for further analysis.
Parameters Measured on Surgery Day: Cardiac activity was recorded continuously during the surgical procedure. Cardiac activity was monitored using three electrocardiographic (ECG) contact electrodes placed in a lead-I/II configuration and connected to an IsoDam8 differential amplifier. Heart rate (HR) was recorded using duplicate systems: from the ECG records (RR-intervals) and using an N-595 pulse oximeter attached to the left front paw of the animal. The heart rate values derived from the pulse oximeter were measured in beat per minutes (bpm) using cursor readings in Clampfit 10.2.0.14CA. Blood oxygen saturation (SpO2) was measured using a pulse oximeter signal attached to the left front paw of the animal.
Systemic arterial blood pressure (SAP) was monitored continuously using an intra-arterial fluid-filled catheter connected to a pressure transducer, with diastolic and systolic pressures values measured in mm Hg. Calculation of mean SAP (mSAP) and pulse pressure (PP) used the following formulas: 1−mSAP=diastolic systemic pressure+([systolic systemic pressure−diastolic systemic pressure]/3); and 2−PP=systolic systemic pressure−diastolic systemic pressure. Pulse pressure was calculated as the difference between systolic and diastolic readings.
After being harvested, the trachea was connected to the cannula of a perfusion system. The left lung was clamped while 5 mL of cold PBS solution was injected in the trachea to perform bronchoalveolar lavage to obtain fluid (BALF) of the right lobe of the lungs and was collected for further analysis (Total cell counts and cytokines measurement). Once the BALF sample was collected, it was centrifuged at 1200 rpm for 10 minutes at 4° C. The supernatant was frozen at −80° C. until cytokines analysis. The cells were then resuspended in PBS and counted with a hemocytometer.
Organ weights were expressed as relative percentages and were calculated as follows: Relative organ weight=(organ weight×100)/body weight.
Histological Preparation and Categorization: For each rat, the left lobe of the lungs was harvested, perfused and fixed with 10% neutral buffered formalin. A transversal section of the middle left lobe was cut and forwarded in 10% NBF to the Institute for Research in Immunology and Cancer (Montreal, Quebec, Canada). […]

[5] = RPI: Day 10 to 20, Day 21, vs BLM, P<0.01
[6] = RPI: Day 10 to 20, Day 21, vs BLM, P<0.05
[7] = RPT: Day 1 to 20, Day 21, vs BLM, P<0.001
[8] = RPT: Day 1 to 20, Day 21, vs BLM, P<0.01
[9] = RPT: Day 1 to 20, Day 21, vs BLM, P<0.05
[10] = all groups (RPT and RPI), Day 21

Sequence of Human Cortex or Human recombinant 5-HT2A (P28223 whole entry, looked up): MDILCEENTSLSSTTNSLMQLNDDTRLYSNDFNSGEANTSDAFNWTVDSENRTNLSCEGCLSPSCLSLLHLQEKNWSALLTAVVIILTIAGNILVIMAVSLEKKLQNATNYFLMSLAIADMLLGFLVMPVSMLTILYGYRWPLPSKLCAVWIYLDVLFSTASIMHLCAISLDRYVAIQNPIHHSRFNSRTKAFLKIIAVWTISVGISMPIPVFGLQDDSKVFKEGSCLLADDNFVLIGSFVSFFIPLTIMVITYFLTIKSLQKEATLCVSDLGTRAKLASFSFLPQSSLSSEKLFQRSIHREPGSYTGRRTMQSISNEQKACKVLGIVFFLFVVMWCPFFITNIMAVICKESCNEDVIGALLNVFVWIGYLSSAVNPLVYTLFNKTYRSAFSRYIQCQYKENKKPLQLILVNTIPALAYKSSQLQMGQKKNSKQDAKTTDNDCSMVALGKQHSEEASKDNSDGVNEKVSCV
Sequence of Human recombinant D2S (P14416 other isoform, or with tags, fused parts or gaps): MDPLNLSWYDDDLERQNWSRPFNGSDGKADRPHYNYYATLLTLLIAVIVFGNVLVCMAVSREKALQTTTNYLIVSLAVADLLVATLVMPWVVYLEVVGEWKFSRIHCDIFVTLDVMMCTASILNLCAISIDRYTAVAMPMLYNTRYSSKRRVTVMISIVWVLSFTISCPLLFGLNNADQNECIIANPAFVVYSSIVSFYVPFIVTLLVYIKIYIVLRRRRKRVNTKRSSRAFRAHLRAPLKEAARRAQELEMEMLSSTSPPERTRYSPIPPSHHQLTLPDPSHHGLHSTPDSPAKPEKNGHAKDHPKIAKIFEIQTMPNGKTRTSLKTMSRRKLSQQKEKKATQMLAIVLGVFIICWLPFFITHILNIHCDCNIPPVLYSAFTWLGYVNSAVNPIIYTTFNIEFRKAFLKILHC

Compound “6-(4-(4-(2-methoxyphenyl)piperazin-1-yl)butoxy)-2H-benzo[b][1,4]oxazin-3(-4H)-one [Compound B]” has a Ki [1] of 0.3 nM, a Ki [2] of 118 nM and a Ki [3] of 0.65 nM.

`O=C1COc2ccc(OCCCCN3CCN(c4cccc(Cl)c4Cl)CC3)cc2N1` [Compound A, 6-(4-(4-(2,3-dichlorophenyl)piperazin-1-yl)butoxy)-2H-benzo[b][1,4]oxazin-3(4H)-one] was tested, and the “survival rate at Day 10” value ([4]; Group 3, 15 mg/kg b.i.d. gavage from Day 1 (text calls it RPI; Group 3 = RPT)) was 100%, the “survival rate at Day 21” value ([4]; RPI: 15 mg/kg b.i.d. gavage Day 10 to 20) was 89.5% and the “BALF IL6” value ([4]; RPI: Day 10 to 20, Day 21) was “numerically (RPT, RPI) reduced”. For the same compound, the “BALF MIP1” value ([4]; RPI: Day 10 to 20, Day 21) was “None of the treatments statistically reversed”, the BALF total protein ([4]; RPI: Day 10 to 20, Day 21) was “numerical improvement reduction” and the arterial pulse pressure ([4]; RPI: Day 10 to 20, Day 21) was “slightly restored”. The blood oxygen saturation ([4]; RPI: Day 10 to 20, Day 21) was “improved”, the cardiac output ([4]; RPI: Day 10 to 20, Day 21) was “slightly restored” and the lung weight ([4]; RPI: Day 10 to 20, Day 21) was “decreased”. For the same compound, the “BALF IP10” value [4, 5] was “significant reductions”, the “BALF RANTES” value [4, 5] was “significantly reduced” and the lung hydroxyproline concentration [4, 5] was “significant diminution”. The “BALF MCP1” value [4, 6] was “significant decrease”, the “BALF total cell count” value [4, 6] was “significantly reduced” and the blood lactate levels [4, 6] was “diminution”. For the same compound, the respiratory resistance ([4]; RPI: Day 10 to 20, Day 21, vs BLM, P=0.10) was “showed improvement”, the “survival rate at Day 21” value ([4]; RPT: 15 mg/kg b.i.d. gavage Day 1 to 20) was 90% and the “BALF IL6” value ([4]; RPT: Day 1 to 20, Day 21) was “numerically (RPT, RPI) reduced”. The “BALF MCP1” value ([4]; RPT: Day 1 to 20, Day 21) was “reductions”, the “BALF MIP1” value ([4]; RPT: Day 1 to 20, Day 21) was “slightly reduced” and the “Ashcroft Score (H&E staining), lung parenchymal fibrotic changes” value [4, 7] was “significant reduction”. For the same compound, the “percentage of collagen disposition in the lung (Masson's trichrome staining)” value [4, 7] was “significantly reduced”, the “BALF IP10” value [4, 8] was “significant reductions” and the “BALF RANTES” value [4, 8] was “significantly reduced”. For the same compound, the blood lactate levels [4, 8] was “diminution”, the body weight [4, 8] was “significantly alleviated BLM-induced weight loss” and the cardiac output [4, 8] was “restored cardiac output”. The “BALF total cell count” value [4, 9] was “reversal”, the BALF total protein [4, 9] was “reversal” and the arterial pulse pressure [4, 9] was “improved arterial pulse pressure”. For the same compound, the blood oxygen saturation [4, 9] was “normalization”, the lung hydroxyproline concentration [4, 9] was “significant diminution” and the lung weight [4, 9] was “significantly lower”. For the same compound, the respiratory resistance [4, 9] was “significant reduction”, the body weight ([4]; administered from Day 10 (RPI; printed RPT), Day 21, vs BLM) was “slightly increased body weight” and the heart rate [4, 10] was “relatively similar in all groups”. The systemic arterial pressure [4, 10] was “no differences were noted among the groups”.
